Here are results for 4 compounds from ChEMBL document CHEMBL5150024, “Design and synthesis of TPP+-Mitomycin C conjugate with reduced toxicity” (Bioorg Med Chem Lett, 2022).

A short description of data set [1]: Cytotoxicity against HUVEC assessed as inhibition of cell growth incubated for 48 hrs by MTT assay. It counts as toxicity, cell-based. The settings on record: human.
Data set [2] has as its system A-375. The data set is described as follows: Antiproliferative activity against human A-375 cells assessed as inhibition of cell growth incubated for 48 hrs by MTT assay. It counts as functional, cell-based. The settings on record: A-375, 48 h. (Tetrazolium dyes change colour on reduction, which living cells bring about.)
Data set [3] relates to MDA-MB-231. The data set is described as follows: Antiproliferative activity against human MDA-MB-231 cells assessed as inhibition of cell growth incubated for 48 hrs by MTT assay. It is filed as functional, cell-based. The settings on record: MDA-MB-231, 48 h.
The subject of data set [4] is MCF7. The data set is described as follows: Antiproliferative activity against human MCF7 cells assessed as inhibition of cell growth incubated for 48 hrs by MTT assay. It counts as functional, cell-based. The note with it: MCF7, 48 h.
The nature of data set [5]: Cytotoxicity against human L02 cells assessed as inhibition of cell growth incubated for 48 hrs by MTT assay. It counts as toxicity, cell-based.
Data set [6] relates to A549. The data set is described as follows: Antiproliferative activity against human A549 cells assessed as inhibition of cell growth incubated for 48 hrs by MTT assay. It is filed as functional, cell-based. The note with it: A549, 48 h.
Data set [7] has as its system PC-3. Description: Antiproliferative activity against human PC-3 cells assessed as inhibition of cell growth incubated for 48 hrs by MTT assay. It is filed as functional, cell-based. The note with it: PC-3, 48 h.
Data set [8] deals with HCT-116. Description: Antiproliferative activity against human HCT-116 cells assessed as inhibition of cell growth incubated for 48 hrs by MTT assay. It is filed as functional, cell-based. The note with it: HCT-116, 48 h.
Data set [9] concerns A549. Description: Induction of mitochondrial membrane depolarization in human A549 cells assessed as loss of red fluorescence at 2 to 8 uM incubated for 4 hrs by TMRM staining based fluorescence assay. It counts as functional, cell-based. The note with it: dose 2-8 µM.
For data set [10], the system named is A549. The data set is described as follows: Induction of cell cycle arrest in human A549 cells assessed as G2 phase cells at 4 uM incubated for 24 hrs by flow cytometric analysis (reference value: 15.75 %). It is filed as functional.
For data set [11], the system named is A549. Description: Antiproliferative activity against human A549 cells assessed as inhibition of cell growth preincubated with FCCP for 1 hrs followed by compound addition and measured after 48 hrs by MTT assay. It is filed as functional, cell-based.
The nature of data set [12]: Toxicity in mouse assessed as effect on kidney pathology at 10 to 20 mg/kg, ip administered for 7 days and measured every 2 days. It is filed as organism-based. The settings on record: in vivo, 168 h, dose 10-20 mg/kg, time 7 day.
Data set [13] relates to A549. The data set is described as follows: Inhibition of cell invasion in human A549 cells at 2 to 4 uM incubated for 24 hrs by transwell invasion assay. It counts as functional, cell-based. The note with it: dose 2-4 µM.
Data set [14] in a line: Toxicity in mouse assessed as effect on spleen pathology at 10 to 20 mg/kg, ip administered for 7 days and measured every 2 days. The settings on record: in vivo, 168 h, dose 10-20 mg/kg, time 7 day. It counts as organism-based.
The subject of data set [15] is A549. Description: Induction of mitochondrial membrane depolarization in human A549 cells assessed as increase in green fluorescence by measuring JC-1 monomer at 2 to 8 uM incubated for 4 hrs by JC-1 dye based assay. It is filed as functional, cell-based. The note with it: dose 2-8 µM.
The test system of data set [16] is A549. Description: Induction of cell cycle arrest in human A549 cells assessed as S phase cells at 1 uM incubated for 24 hrs by flow cytometric analysis (reference value: 23.49 %). It counts as functional.
Data set [17] has as its system A549. Description: Induction of cell cycle arrest in human A549 cells assessed as G1 phase cells at 1 uM incubated for 24 hrs by flow cytometric analysis (reference value: 60.75 %). It is filed as functional.
Data set [18] relates to A549. Description: Induction of apoptosis in human A549 cells at 4 uM by Annexin V-FITC/PI staining based flow cytometric analysis. It counts as functional, cell-based. The note with it: time 12-48 hrs, TDE = time-dependent effect.
Data set [19] in a line: Toxicity in mouse assessed as effect on body weight at 20 mg/kg, ip administered for 7 days and measured every 2 days. It counts as organism-based. The settings on record: in vivo, 168 h, time 7 day.
Data set [20] relates to A549. The data set is described as follows: Induction of cell cycle arrest in human A549 cells assessed as G1 phase cells at 4 uM incubated for 24 hrs by flow cytometric analysis (reference value: 60.75 %). It is filed as functional. A general note: In flow cytometry, cells or beads pass a laser one at a time.
A short description of data set [21]: Toxicity in mouse assessed as effect on lung pathology at 10 to 20 mg/kg, ip administered for 7 days and measured every 2 days. It is filed as organism-based. The settings on record: in vivo, 168 h, dose 10-20 mg/kg, time 7 day.
Data set [22] deals with A549. Description: Induction of apoptosis in human A549 cells assessed as total apoptotic cells at 4 uM incubated for 48 hrs by Annexin V-FITC/PI staining based flow cytometric analysis relative to control. It counts as functional.
Data set [23] in a line: Toxicity in mouse assessed as death at 10 to 20 mg/kg, ip administered for 7 days and measured every 2 days. It is filed as organism-based. The note with it: in vivo, 168 h, dose 10-20 mg/kg, time 7 day.
Data set [24] has as its system A549. The data set is described as follows: Induction of cell cycle arrest in human A549 cells assessed as S phase cells at 4 uM incubated for 24 hrs by flow cytometric analysis (reference value: 23.49 %). It is filed as functional.
For data set [25], the system named is A549. The data set is described as follows: Induction of mitochondrial membrane depolarization in human A549 cells assessed as increase in JC-1 monomer ratio at 2 to 8 uM incubated for 24 hrs by JC-1 staining based flow cytometric analysis. It is filed as functional, cell-based. The note with it: dose 2-8 µM.
Data set [26] can be described thus: Toxicity in mouse assessed as effect on liver pathology at 10 to 20 mg/kg, ip administered for 7 days and measured every 2 days. It counts as organism-based. The settings on record: in vivo, 168 h, dose 10-20 mg/kg, time 7 day.
Data set [27] has as its system A549. The data set is described as follows: Induction of cell cycle arrest in human A549 cells assessed as G2 phase cells at 1 uM incubated for 24 hrs by flow cytometric analysis (reference value: 15.75 %). It is filed as functional.
Data set [28] has as its system A549. Description: Induction of cell cycle arrest in human A549 cells assessed as S phase cells at 2 uM incubated for 24 hrs by flow cytometric analysis (reference value: 23.49 %). It counts as functional.
Data set [29] deals with A549. The data set is described as follows: Induction of apoptosis in human A549 cells assessed as total apoptotic cells at 2 uM incubated for 48 hrs by Annexin V-FITC/PI staining based flow cytometric analysis relative to control. It is filed as functional.
The nature of data set [30]: Toxicity in mouse assessed as effect on heart pathology at 10 to 20 mg/kg, ip administered for 7 days and measured every 2 days. It counts as organism-based. The note with it: in vivo, 168 h, dose 10-20 mg/kg, time 7 day.
Data set [31] can be described thus: Toxicity in mouse assessed as clinical signs at 10 to 20 mg/kg, ip administered for 7 days and measured every 2 days. It is filed as organism-based. The settings on record: in vivo, 168 h, dose 10-20 mg/kg, time 7 day.
The subject of data set [32] is A549. The data set is described as follows: Induction of apoptosis in human A549 cells assessed as total apoptotic cells at 1 uM incubated for 48 hrs by Annexin V-FITC/PI staining based flow cytometric analysis relative to control. It counts as functional.
Data set [33] has as its system A549. Description: Induction of cell cycle arrest in human A549 cells assessed as G2 phase cells at 2 uM incubated for 24 hrs by flow cytometric analysis (reference value: 15.75 %). It counts as functional.
The test system of data set [34] is A549. The data set is described as follows: Induction of cell cycle arrest in human A549 cells assessed as G1 phase cells at 2 uM incubated for 24 hrs by flow cytometric analysis (reference value: 60.75 %). It is filed as functional.
Data set [35] concerns A549. Description: Inhibition of cell migration in human A549 cells at 2 uM incubated for 48 hrs by wound healing assay. It counts as functional, cell-based.

Active and inactive are the calls of the source. The calls are words filed in the database; no cut-off is given here. A value given as a limit tells only on which side of the number the result lay.

In the case of `CO[C@@]12[C@H](COC(N)=O)C3=C(C(=O)C(C)=C(N)C3=O)N1C[C@H]1[C@@H]2N1CCCCCCCCCC[P+](c1ccccc1)(c1ccccc1)c1ccccc1` (some centres undefined), the IC50 at 48 h in data set [1] is 10000 nM; in [5] it was greater than 5000 nM. For the same compound, the IC50 stood at 1960 nM in data set [2]; 1950 nM in data set [3]; 3170 nM in [4]; 2820 nM in data set [6]; 4710 nM in data set [7]; 1960 nM in data set [8].

Take `CO[C@@]12[C@H](COC(N)=O)C3=C(C(=O)C(C)=C(N)C3=O)N1C[C@H]1[C@@H]2N1C(=O)CCCCCCCCCCC[P+](c1ccccc1)(c1ccccc1)c1ccccc1`: the IC50 at 48 h is greater than 5000 nM in data set [1] and greater than 2500 nM in data set [5]. In addition, the IC50 in [2] was found to be 640 nM; in data set [3], 2630 nM; in data set [4], 4560 nM; in [6] it was 670 nM; in data set [7], 970 nM; in data set [8], 750 nM.

On to `CO[C@@]12[C@H](COC(N)=O)C3=C(C(=O)C(C)=C(N)C3=O)N1C[C@H]1[C@@H]2N1C(=O)CCCCCCC[P+](c1ccccc1)(c1ccccc1)c1ccccc1`, for which the half-maximal inhibitory concentration (IC50) at 48 h in [1] and in data set [5] was greater than 20000 nM in each case. The IC50 was found to be 1860 nM in data set [2]; 7640 nM in data set [3]; 6590 nM in [4]; 1310 nM in data set [6]; 11900 nM in data set [7]; 1230 nM in [8].

`CO[C@@]12[C@H](COC(N)=O)C3=C(C(=O)C(C)=C(N)C3=O)N1C[C@H]1[C@@H]2N1C(=O)CCCCCCCCC[P+](c1ccccc1)(c1ccccc1)c1ccccc1.[Br-]`: the IC50 at 48 h in data set [1] and in [5] was greater than 20000 nM in each case. Moreover, the outcome in [9], in data set [15] and in [25] was Active. The Activity was 14.35% in data set [10]; “Non-Toxic” in data set [12]; “Non-Toxic” in data set [14]; 50.92% in data set [16]; 14.87% in [17]; “Tde” in [18]. Also, the Activity entry is “Non-Toxic” in [19]; 0.72% in [20]; “Non-Toxic” in [21]; 24.9% in data set [22]; “Non-Toxic” in data set [23]; 84.94% in [24]. Besides, the Activity entry is “Non-Toxic” in data set [26]; 34.21% in data set [27]; 49.53% in data set [28]; 20.2% in data set [29]; “Non-Toxic” in [30]; “Non-Toxic” in [31]. The values for the Activity in data set [32], in [33] and in data set [34] were 18%, 44.68% and 5.79%, respectively. In addition, the IC50 was determined as 1460 nM in data set [2]; 11300 nM in data set [11]; 3110 nM in data set [3]; 5450 nM in [4]; 1090 nM in data set [6]; 6050 nM in data set [7]. Moreover, in [8], the IC50 was determined as 1220 nM. The inhibition entry in data set [13] and in data set [35] was “Active” throughout.

A word on the IC50: it is the concentration that inhibits the measured activity by half.
